This data set can be described thus: Aqueous solubility in DI water (visual inspection). The class given is physicochemical. Conditions: HCl salt, incubated at 50 or 100 mg/mL. As for the experimental part: In order to determine the aqueous solubility of the compounds described herein, the HCl salts of the following compounds were incubated at either 50 or 100 mg/mL in DI water and visually inspected for insoluble material.

On to `CNCC1CN(C(=O)CCOCCOCCOCCOC)CCN1C(=O)Oc1ccc(CNC(=O)CCCC/C=C/C(C)C)cc1OC` (stereo not shown) [Compound 1, (E)-2-methoxy-4-((8-methylnon-6-enamido)methyl)phenyl 2-((methylamino)methyl)-4-(2,5,8,11-tetraoxatetradecan-14-oyl)piperazine-1-carboxylate], for which the solubility (commonly the concentration that dissolves in the medium under given conditions) was more than 100 mg/mL.

The values above are taken from US10717712B2, “Pegylated prodrugs of phenolic TRPV1 agonists” (CONCENTRIC ANALGESICS, INC., priority 2018, dated 2020).
